± gives the standard deviation of the averaged measurements.
How the values were obtained:
Assay in all cases: level (log10 ratio to DMSO vehicle control); higher = higher biomarker level / cell amount than vehicle control
Conditions in all cases: in DMSO
Perfluorohexanoic acid = compound: O=C(O)C(F)(F)C(F)(F)C(F)(F)C(F)(F)C(F)(F)F [Perfluorohexanoic acid]
Protocol: (§1)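 BioMAP Diversity Plus panel of 12 human primary cell co-culture systems (3C, 4H, LPS, SAg, BT, BF4T, BE3C, CASM3C, HDF3CGF, KF3CT, MyoF, Mphg). Compounds were added 1 h before stimulation and left for 24 h (MyoF 48 h; BT 72 h for soluble read-outs or 6 d for IgG). Biomarkers were read by ELISA, cytotoxicity by SRB, PBMC viability and proliferation by Alamar Blue. Each well value was divided by the mean of 8 DMSO control wells on the same plate and log10 transformed; duplicate blinded samples were tested at 4 concentrations.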

[1] = compound: O=C(O)C(F)(F)C(F)(F)C(F)(F)C(F)(F)C(F)(F)C(F)(F)C(F)(F)C(F)(F)C(F)(F)C(F)(F)C(F)(F)C(F)(F)C(F)(F)F [Perfluorotetradecanoic acid]
Protocol: as §1

Perfluorooctanamidine = compound: N=C(N)C(F)(F)C(F)(F)C(F)(F)C(F)(F)C(F)(F)C(F)(F)C(F)(F)F [Perfluorooctanamidine]
Protocol: as §1

1H,1H-Heptafluorobutanol = compound: OCC(F)(F)C(F)(F)C(F)(F)F [1H,1H-Heptafluorobutanol]
Protocol: as §1

[2] = compound: CC(C)(C)C(=O)CC(=O)C(F)(F)C(F)(F)C(F)(F)F [(Heptafluorobutanoyl)pivaloylmethane]
Protocol: as §1

[3] = compound: C=CC(=O)OCCC(F)(F)C(F)(F)C(F)(F)C(F)(F)F [2-(Perfluorobutyl)ethyl acrylate]
Protocol: as §1

[4] = compound: CNS(=O)(=O)C(F)(F)C(F)(F)C(F)(F)C(F)(F)C(F)(F)C(F)(F)C(F)(F)C(F)(F)F [N-Methylperfluorooctanesulfonamide]
Protocol: as §1

Row | Test System | level (log10) (Perfluorohexanoic acid; 6700 nM) | level (log10) (Perfluorohexanoic acid; 20000 nM) | level (log10) (Perfluorohexanoic acid; 60000 nM) | level (log10) ([1]; 6700 nM) | level (log10) ([1]; 20000 nM) | level (log10) (Perfluorooctanamidine; 6700 nM) | level (log10) (Perfluorooctanamidine; 20000 nM) | level (log10) (Perfluorooctanamidine; 60000 nM) | level (log10) (1H,1H-Heptafluorobutanol; 6700 nM) | level (log10) (1H,1H-Heptafluorobutanol; 20000 nM) | level (log10) (1H,1H-Heptafluorobutanol; 60000 nM) | level (log10) ([2]; 6700 nM) | level (log10) ([2]; 20000 nM) | level (log10) ([2]; 60000 nM) | level (log10) ([3]; 6700 nM) | level (log10) ([3]; 20000 nM) | level (log10) ([3]; 60000 nM) | level (log10) ([4]; 6700 nM) | level (log10) ([4]; 20000 nM) | level (log10) ([4]; 60000 nM)
1 | HDF3CGF:CXCL10/IP-10 | -0.0135 ± 0.023 | -0.0215 ± 0.0035 | -0.0235 ± 0.013 | 0.022 ± 0.0099 | -0.0585 ± 0.1 | 0.024 ± 0.014 | -0.004 ± 0.034 | -0.122 | 0.0105 ± 0.04 | -0.006 ± 0.016 | -0.0055 ± 0.011 | -0.0195 ± 0.0078 | -0.0105 ± 0.012 | -0.076 ± 0.023 | -0.0135 ± 0.029 | -0.0985 ± 0.013 | -0.281 ± 0.032 | -0.102 ± 0.064 | -0.099 ± 0.071 | -0.0875 ± 0.022
2 | CASM3C:CD106/VCAM-1 | -0.013 ± 0.011 | -0.002 ± 0.014 | -0.029 ± 0.018 | -0.023 ± 0.041 | -0.0065 ± 0.073 | -0.0165 ± 0.00071 | -0.0195 ± 0.012 | -0.032 | 0.0035 ± 0.033 | 0.0065 ± 0.012 | -0.0015 ± 0.0092 | -0.006 ± 0.014 | -0.004 ± 0.021 | -0.002 ± 0.03 | -0.0175 ± 0.023 | -0.0475 ± 0.0078 | -0.138 ± 0.016 | -0.088 ± 0.044 | -0.14 ± 0.061 | -0.0895 ± 0.06
3 | KF3CT:SRB | 0.0045 ± 0.0035 | -0.012 ± 0.0014 | 0.0045 ± 0.00071 | -0.0005 ± 0.0035 | 0.0025 ± 0.0078 | -0.001 ± 0.0014 | -0.004 ± 0.0014 | 0.027 | 0.0015 ± 0.015 | 0.0005 ± 0.00071 | 0.0095 ± 0.0021 | -0.0055 ± 0.0021 | -0.003 ± 0.0071 | -0.0065 ± 0.005 | -0.01 ± 0.0028 | -0.0095 ± 0.005 | -0.0205 ± 0.013 | -0.0005 ± 0.00071 | -0.0035 ± 0.0078 | -0.002 ± 0.024
4 | CASM3C:SRB | -0.001 | -0.013 ± 0.0028 | -0.0005 ± 0.0021 | -0.011 ± 0.0028 | 0.0025 ± 0.0092 | -0.0015 ± 0.011 | -0.0105 ± 0.00071 | -0.018 | -0.0025 ± 0.0092 | 0.0125 ± 0.0021 | 0.009 ± 0.0028 | 0.01 ± 0.0014 | -0.002 ± 0.0014 | 0.0035 ± 0.00071 | 0.0015 ± 0.0021 | 0.0055 ± 0.005 | 0.0005 ± 0.00071 | 0.01 ± 0.0014 | -0.0015 ± 0.0021 | 0.002 ± 0.0028
5 | KF3CT:CXCL10/IP-10 | 0.0045 ± 0.0092 | 0.0045 ± 0.005 | 0.017 ± 0.0014 | 0.0065 ± 0.016 | -0.0165 ± 0.016 | 0.012 ± 0.042 | 0.0025 ± 0.04 | 0.04 | 0.004 ± 0.0042 | -0.0025 ± 0.016 | 0.012 ± 0.0071 | 0.004 ± 0.0099 | -0.006 ± 0.0028 | 0.007 ± 0.0014 | -0.009 ± 0.0057 | -0.0125 ± 0.022 | -0.0285 ± 0.0078 | 0.0005 ± 0.04 | 0.003 ± 0.034 | 0.0255 ± 0.026
6 | MyoF:TIMP-1 | 0.0085 ± 0.0021 | -0.006 ± 0.0042 | 0.0245 ± 0.0064 | 0.0075 ± 0.049 | 0.0345 ± 0.013 | 0.0185 ± 0.011 | 0.041 | 0.123 | 0.0115 ± 0.028 | 0.014 ± 0.035 | 0.025 ± 0.03 | 0.0095 ± 0.028 | 0.0135 ± 0.06 | 0.009 ± 0.047 | -0.031 ± 0.048 | 0.0025 ± 0.018 | 0.016 ± 0.042 | -0.0435 ± 0.00071 | -0.049 ± 0.034 | -0.0415 ± 0.005
7 | CASM3C:CD141/Thrombomodulin | 0.021 ± 0.021 | -0.0105 ± 0.021 | 0.0005 ± 0.044 | 0.0555 ± 0.064 | 0.056 ± 0.044 | -0.008 ± 0.016 | -0.0205 ± 0.005 | 0.043 | -0.01 ± 0.013 | -0.0065 ± 0.0021 | -0.0145 ± 0.005 | -0.008 ± 0.033 | -0.005 ± 0.018 | -0.038 ± 0.0042 | 0.006 ± 0.018 | -0.0125 ± 0.0064 | 0.052 ± 0.0014 | 0.0085 ± 0.019 | -0.028 ± 0.057 | -0.002 ± 0.044
8 | KF3CT:CCL2/MCP-1 | -0.0155 ± 0.019 | -0.0385 ± 0.018 | 0.001 ± 0.052 | 0.004 ± 0.0071 | 0.0205 ± 0.0078 | -0.0075 ± 0.0064 | 0.029 ± 0.0099 | 0.092 | 0.0035 ± 0.005 | 0.006 ± 0.0042 | 0.0235 ± 0.015 | 0.0025 ± 0.005 | 0.035 ± 0.0085 | 0.0645 ± 0.013 | -0.036 ± 0.0099 | -0.0515 ± 0.0035 | -0.028 ± 0.086 | 0.029 ± 0.017 | -0.01 ± 0.014 | -0.0185 ± 0.005
9 | HDF3CGF:PAI-I | 0.0415 ± 0.044 | -0.0095 ± 0.021 | 0.025 ± 0.075 | 0.0475 ± 0.023 | 0.0405 ± 0.021 | -0.0225 ± 0.013 | 0.02 ± 0.014 | -0.233 | -0.037 ± 0.037 | -0.0045 ± 0.025 | -0.054 ± 0.083 | 0.011 ± 0.016 | 0.0255 ± 0.00071 | 0.0685 ± 0.049 | -0.0135 ± 0.0035 | -0.0185 ± 0.023 | -0.016 ± 0.024 | 0.051 ± 0.0028 | 0.0455 ± 0.019 | 0.063 ± 0.02
10 | CASM3C:CD142/Tissue Factor | -0.0125 ± 0.013 | -0.019 ± 0.0042 | -0.0145 ± 0.005 | -0.005 ± 0.038 | -0.002 ± 0.041 | -0.022 ± 0.024 | -0.033 ± 0.0014 | 0.042 | 0.0005 ± 0.0078 | -0.0225 ± 0.013 | -0.015 ± 0.0057 | -0.017 ± 0.0057 | -0.0275 ± 0.0035 | -0.037 ± 0.027 | -0.027 ± 0.011 | -0.0455 ± 0.0092 | -0.0585 ± 0.0092 | -0.025 ± 0.037 | -0.0115 ± 0.005 | 0.019 ± 0.011
11 | HDF3CGF:EGFR | 0.027 ± 0.017 | 0.03 ± 0.021 | 0.003 ± 0.081 | -0.0725 ± 0.036 | 0.029 ± 0.081 | -0.017 ± 0.02 | 0.01 ± 0.011 | -0.013 | -0.086 ± 0.031 | -0.0205 ± 0.081 | -0.039 ± 0.1 | 0.027 ± 0.016 | -0.102 ± 0.031 | 0.009 ± 0.055 | -0.002 ± 0.016 | -0.0165 ± 0.005 | -0.0055 ± 0.021 | 0.016 ± 0.0057 | -0.014 ± 0.023 | 0.0055 ± 0.0064
12 | lMphg:CXCL8/IL-8 | 0.045 ± 0.024 | 0.0515 ± 0.036 | 0.074 ± 0.023 | 0.0035 ± 0.032 | 0.0215 ± 0.049 | 0.011 | 0.0425 ± 0.019 | 0.175 | 0.003 ± 0.055 | 0.0295 ± 0.036 | 0.0415 ± 0.021 | 0.002 ± 0.02 | 0.006 ± 0.034 | 0.014 ± 0.064 | 0.013 ± 0.014 | 0.0045 ± 0.0021 | 0.0055 ± 0.0078 | -0.0025 ± 0.0078 | 0.112 ± 0.022 | 0.118 ± 0.044
13 | CASM3C:IL-6 | -0.0075 ± 0.042 | -0.0155 ± 0.0021 | -0.0125 ± 0.053 | 0.002 ± 0.051 | 0.0135 ± 0.094 | -0.046 ± 0.023 | -0.041 ± 0.035 | 0.041 | 0 ± 0.033 | -0.0125 ± 0.011 | 0.018 ± 0.042 | -0.0155 ± 0.0064 | -0.0375 ± 0.018 | -0.0145 ± 0.028 | -0.023 ± 0.0014 | -0.0425 ± 0.0021 | -0.076 ± 0.034 | -0.0605 ± 0.036 | -0.066 ± 0.02 | -0.0025 ± 0.035

Reference: the supplement of paper PMC10331698
